Earlier results, collected in patent US8362266B2, “Method of manufacturing a ruthenium complex” (Niiki Pharma Inc., priority 2007, dated 2013).

Test system: broad spectrum of cancer cells
Conditions: background statement citing Kapitza et al., J. Cancer Res. Clin. Oncol. 131(2):101-10 (2005)

SMILES | inducing apoptosis
[Cl][Ru-]([Cl])([Cl])[Cl].[Na+].c1ccc2[nH]ncc2c1.c1ccc2[nH]ncc2c1 [KP1339, sodium trans-[tetrachlorobis(1H-indazole)ruthenate (III)]] | highly potent
[Cl-].[Cl-].[Cl-].[Cl-].[Ru+3].c1ccc2[nH][nH+]cc2c1.c1ccc2[nH]ncc2c1.c1ccc2[nH]ncc2c1 [KP1099, indazolium trans-[tetrachlorobis(1H-indazole)ruthenate (III)]] | highly potent
